# Test results from patent US11297839B2, “Stable compositions of uncomplexed iodine and methods of use” (ioTech International, Inc., priority 2014, dated 2022).
# Experiment: Compatibility of surface active agents with molecular iodine base composition
# Type: physicochemical
# Settings: 985 micromolar molecular iodine base with n-propanol, peracetic acid, hydrogen peroxide, iodate, citric acid; 37 degrees centigrade 6 weeks
# Method: A further objective of this invention was to incorporate surface active agents in the compositions contemplated in this application to enhance the cleaning and wetting properties of said compositions. A series of surface active agents were screened to insure their compatibility with the molecular iodine based composition contemplated in this application. A 985 micromolar concentration of molecular iodine was prepared by dissolving elemental iodine crystals in a sealed glass volumetric flask containing the base composition. […] Samples of the following surface active agents or classes of surface active agents were obtained from various manufacturers and evaluated for compatibility with molecular iodine.
row,Compound,compatibility of surface active agent with molecular iodine composition
1,nonylphenoxypolyethyleneoxy ethanol sulfate,compatible at all concentrations tested
2,CCCCCCCC(=O)O [capryllic acid],compatible at all concentrations tested
3,"CCCCCCCCC(=O)OCC(O)CO (stereo not shown) [nonanoic acid 2,3-dihydroxypropyl ester]",compatible at all concentrations tested
4,"CCCCCCCCCCCC(=O)OCC(O)CO (stereo not shown) [dodecanoic acid 2,3-dihydroxypropyl ester]",compatible at all concentrations tested

# Experiment: Compatibility of biocides with 300 ppm molecular iodine base composition
# Settings: biocide added at increasing concentrations to 300 ppm molecular iodine base, iodate excess 2; 6 weeks
row,Compound,"compatibility with molecular iodine (colour, thiosulfate titratable iodine)"
1,CCO [ethanol],did not reduce thiosulfate titratable iodine
2,"CCCO [Formulation 1-propanol, 1-propanol]",did not reduce thiosulfate titratable iodine
3,CCCCCCCC(=O)O [octanoic acid],did not reduce thiosulfate titratable iodine
4,"CC(C)O [Formulation 2-propanol, 2-propanol]",did not reduce thiosulfate titratable iodine
5,CC(=O)OO [peracetic acid],did not reduce thiosulfate titratable iodine
6,OO [hydrogen peroxide],did not reduce thiosulfate titratable iodine
